Like-named read-outs stand apart in the source and are kept apart here. One block for each molecule: values may come before it. Non-standard residues stand in square brackets, D forms with d. Residues, ends and D or L forms follow the SMILES beside them. No end group written: not given here.
Key:
[1] = biological target: T1, rCRFR1 (Rattus norvegicus, UniProt P35353); assay: Displacement of [^125I-Tyr^0]oCRF from membranes of HEK-rCRFR1 cells; format: binding
T1 construct: expressed in transfected cells; host or cells: HEK 293 cells, stably transfected (HEK-rCRFR1)
T1 sequence (P35353 24-415): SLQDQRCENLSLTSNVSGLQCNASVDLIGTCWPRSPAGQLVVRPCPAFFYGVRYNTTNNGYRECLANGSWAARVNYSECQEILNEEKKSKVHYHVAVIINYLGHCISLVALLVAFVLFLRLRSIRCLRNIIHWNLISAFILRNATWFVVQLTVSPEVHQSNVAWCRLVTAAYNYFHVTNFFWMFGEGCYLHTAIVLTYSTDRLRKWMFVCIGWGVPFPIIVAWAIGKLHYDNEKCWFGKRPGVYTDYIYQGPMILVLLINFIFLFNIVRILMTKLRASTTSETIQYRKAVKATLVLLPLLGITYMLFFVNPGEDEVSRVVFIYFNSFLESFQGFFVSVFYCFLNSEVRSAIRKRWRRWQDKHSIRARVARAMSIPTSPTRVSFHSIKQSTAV
Protocol: (§1) Binding assays were performed in 96-well MultiScreen plates (Millipore, Eschborn, Germany) with GF/B filters (pore size 1.0 μm). […] After incubation (60 min, 23° C.), membrane suspension was aspirated through the plate, followed by two washes with assay buffer (0.2 ml, 23°). Radioactivity of the punched filters was measured with a 1470 WIZARD automatic gamma counter (Berthold, Hannover). […] Statistical analysis was performed with ANOVA, and significant differences between groups were determined by post hoc comparison using the Dunn test.
(§2) Membrane homogenates of human embryonic kidney (HEK) 293 cells stably transfected with cDNA coding for rat CRF receptor, type 1 (rCRFR1) or mouse CRF receptor, type 2β (mCRFR2β) were prepared according to standard protocols (see, e.g., Sambrook et al., Molecular Cloning: A Laboratory Manual, 2nd. Edition, Cold Spring Habor Laboratory Press, Cold Spring Habor, N.Y., 1989; Ausubel et al., Current Protocols in Molecular Biology, Green Publishing Associates and Wiley Interscience, NY, 1989).

[2] = biological target: T2, mCRFR2β (Mus musculus, UniProt Q60748); assay: Displacement of [^125I-Tyr^0]Svg from membranes of HEK-mCRFR2β cells; format: binding; conditions: for Selectivity: Kd(rCRFR1)(peptide)/Kd(rCRFR1)(astressin) × Kd(mCRFR2β)(astressin)/Kd(mCRFR2β)(peptide)
T2 construct: expressed in transfected cells; host or cells: HEK 293 cells, stably transfected (HEK-mCRFR2β); membrane homogenates
Protocol: as §1, §2

[3] = biological target: T1, rCRFR1; assay: cAMP stimulation / inhibition of oCRF-stimulated cAMP production in HEK-rCRFR1 cells; format: cell-based; conditions: for Emax: read-out: HEK-rCRFR1 cells rel. IA (relative intrinsic activity); for HEK-rCRFR1 cells rel. pot. (relative potency): oCRF alone = 1.00
Protocol: (§3) HEK-rCRFR1 cells or HEK-mCRFR2β cells were incubated with different CRF agonists in the presence or absence of 1 μM or 10 nM antagonist, or CRF antagonist (c=1 μM) alone. After removal of the medium, cells were lyzed with aqueous 6% trichloroacetic acid (5 min, 100° C.) (Rühmann, A., A. K. E. Köpke, F. M. Dautzenberg, and J. Spiess, Proc. Natl. Acad. Sci. USA 93: 10609-10613, 1996). The cell lysates were stored at −70° C. until assayed with a RIA kit (Amersham, Little Chalfont). […] Statistical significance was determined across groups with ANOVA, and significant differences between groups were determined by post hoc comparison using the Dunn test.
(§4) Intrinsic activities were measured at peptide concentrations generating maximal formation of cAMP in HEK-rCRFR1 or HEK-mCRFR2β cells.

[4] = biological target: T2, mCRFR2β; assay: cAMP stimulation / inhibition of Svg-stimulated cAMP production in HEK-mCRFR2β cells; format: cell-based
Protocol: as §3, §4
Target sequence in this assay (Q60748 1-431 isoform Q60748-2): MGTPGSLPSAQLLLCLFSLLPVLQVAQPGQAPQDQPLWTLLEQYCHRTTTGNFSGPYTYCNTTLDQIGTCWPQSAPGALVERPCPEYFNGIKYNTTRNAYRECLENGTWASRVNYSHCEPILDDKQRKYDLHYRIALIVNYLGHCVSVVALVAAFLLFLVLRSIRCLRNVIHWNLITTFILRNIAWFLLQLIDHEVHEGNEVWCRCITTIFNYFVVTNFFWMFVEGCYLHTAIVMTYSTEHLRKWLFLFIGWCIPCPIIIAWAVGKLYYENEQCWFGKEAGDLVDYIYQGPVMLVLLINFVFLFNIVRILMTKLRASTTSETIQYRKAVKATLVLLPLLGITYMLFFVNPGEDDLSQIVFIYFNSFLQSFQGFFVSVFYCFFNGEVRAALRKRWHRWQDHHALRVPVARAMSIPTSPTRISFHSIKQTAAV

[5] = biological target: T3, rat CRF receptor, type 1 (rCRFR1) (rat, UniProt P35353 24-415); assay: cell-based or functional assay
T3 sequence (looked up): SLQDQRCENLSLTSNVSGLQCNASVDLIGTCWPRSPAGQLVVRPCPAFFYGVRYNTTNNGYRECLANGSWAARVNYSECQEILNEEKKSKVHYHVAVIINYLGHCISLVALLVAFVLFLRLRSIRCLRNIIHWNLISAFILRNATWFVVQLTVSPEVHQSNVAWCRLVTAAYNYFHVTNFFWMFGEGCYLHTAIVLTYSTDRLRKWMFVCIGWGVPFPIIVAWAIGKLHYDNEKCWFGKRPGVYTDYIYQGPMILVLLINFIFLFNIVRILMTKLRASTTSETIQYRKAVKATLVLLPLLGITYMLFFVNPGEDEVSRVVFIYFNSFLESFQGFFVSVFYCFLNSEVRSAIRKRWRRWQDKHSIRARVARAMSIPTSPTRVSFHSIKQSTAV

[6] = biological target: T3, rat CRF receptor, type 1 (rCRFR1); assay: cell-based or functional assay; remark: listed apart in the source
[7] = biological target: T3, rat CRF receptor, type 1 (rCRFR1); assay: cell-based or functional assay; remark: listed apart in the source
[8] = biological target: mouse CRF receptor, type 2β (mCRFR2β) (mouse) (UniProt Q60748); assay: displacement of [125I-Tyr0]Svg from HEK-mCRFR2β membranes
[9] = biological target: T3, rat CRF receptor, type 1 (rCRFR1); assay: displacement of [125I-Tyr0]oCRF from HEK-rCRFR1 membranes
Protocol: as §1

[10] = biological target: T3, rat CRF receptor, type 1 (rCRFR1); assay: as above; remark: listed apart in the source
Protocol: as §1

[11] = biological target: mouse CRF receptor, type 2β (mCRFR2β) (mouse) (UniProt Q60748); assay: Kd(rCRFR1)/Kd(mCRFR2β) of the peptide normalised to that of astressin; radioligand displacement
[12] = Table 4, 1 μM antagonist, cAMP production stimulated by 1 nM oCRF

Molecule: CC[C@H](C)[C@H](NC(=O)[C@H](CC(=O)O)NC(=O)[C@H](CC(C)C)NC(=O)[C@H](CC(C)C)NC(=O)[C@H](CCCCN)NC(=O)[C@H](CCCNC(=N)N)NC(=O)[C@H](CC(N)=O)NC(=O)[C@H](CO)NC(=O)[C@H](Cc1c[nH]cn1)NC(=O)[C@H](C)NC(=O)[C@H](CCC(N)=O)NC(=O)[C@H](CCC(N)=O)NC(=O)[C@H](C)NC(=O)[C@H](CC(C)C)NC(=O)[C@H](CCC(N)=O)NC(=O)[C@H](CC(=O)O)NC(=O)[C@H](C)NC(=O)[C@H](CCCCN)NC(=O)[C@@H](NC(=O)[C@H](CCSC)NC(=O)[C@H](CCC(=O)O)NC(=O)[C@H](CC(C)C)NC(=O)[C@@H](NC(=O)[C@H](CCC(=O)O)NC(=O)[C@H](CCCNC(=N)N)NC(=O)[C@H](CC(C)C)NC(=O)[C@H](CC(C)C)NC(=O)[C@H](Cc1c[nH]cn1)NC(=O)[C@H](Cc1ccccc1)NC(=O)[C@@H](NC(=O)[C@H](CC(C)C)NC(=O)[C@H](CC(=O)O)NC(=O)[C@H](CC(C)C)NC(=O)[C@H](CO)NC(=O)[C@@H](NC(=O)[C@@H]1CCCN1C(=O)[C@@H]1CCCN1C(=O)[C@H](CCC(=O)O)NC(=O)[C@H](CCC(N)=O)NC(=O)[C@@H](N)CO)[C@@H](C)CC)[C@@H](C)O)C(C)C)[C@@H](C)O)C(=O)N[C@@H](C)C(N)=O [compound 1, oCRF, reference compound]
Kd ([1]; membranes of HEK-rCRFR1 cells, read-out: Kd, binding to rCRFR1): 0.0006 ± 0.0001 µM | Selectivity ([2]; Table 1): 0.002 | Kd ([2]; Table 1, [^125I-Tyr^0]Svg as competitive ligand, recombinant mCRFR2β, HEK 293 membranes, read-out: Kd(mCRFR2β)): 0.162 ± 0.0376 µM | Selectivity ([2]; Table 3): 0.002 | Emax at 0.001 µM ([3]; Table 2, 1 μM CRF antagonist alone, cAMP production in HEK-rCRFR1 cells, oCRF (1 nM) = 1.00, read-out: rCRFR1 % IA (intrinsic activity)): 100% | rCRFR1 relative in vitro potency ([3]; Table 2, 1 μM antagonist, cAMP production stimulated by 1 nM oCRF, oCRF alone = 1.00 (lower = stronger inhibition)): 1.00 | Emax ([3]; Table 4, 1 μM CRF antagonist alone, cAMP production, oCRF = 1.00): 100% | HEK-rCRFR1 cells rel. pot. (relative potency) [3, 12]: 1.00 | EC50 ([4]; agonist): 0.0118 ± 0.00196 µM

% IA (intrinsic activity), cAMP production, HEK-rCRFR1 cells (relative, oCRF = 1.00) [5]: 0.16
Molecule: α-helical CRF(9-41) (peptide)

Molecule: CC[C@H](C)[C@H](NC(=O)[C@@H](NC(=O)[C@H](CC(=O)O)NC(=O)[C@H](CC(C)C)NC(=O)[C@H](CC(C)C)NC(=O)[C@H](CC(C)C)NC(=O)[C@H](CCCNC(=N)N)NC(=O)[C@H](CC(N)=O)NC(=O)[C@H](CC(N)=O)NC(=O)[C@H](C)NC(=O)[C@H](C)NC(=O)[C@H](CCC(N)=O)NC(=O)[C@H](CCC(N)=O)NC(=O)[C@H](CCCCN)NC(=O)[C@H](CCC(=O)O)NC(=O)[C@H](CCCCN)NC(=O)[C@H](CCC(=O)O)NC(=O)[C@H](CCC(N)=O)NC(=O)[C@H](CCCCN)NC(=O)[C@H](CCC(=O)O)NC(=O)[C@@H](NC(=O)[C@H](CCC(=O)O)NC(=O)[C@@H](NC(=O)[C@H](CCSC)NC(=O)[C@H](CCCCN)NC(=O)[C@H](CCCNC(=N)N)NC(=O)[C@H](CC(C)C)NC(=O)[C@H](CC(C)C)NC(=O)[C@@H](N)Cc1ccc(O)cc1)[C@@H](C)CC)[C@@H](C)CC)[C@@H](C)O)C(N)=O [compound 20, [Tyr^12]Svg(12-40)] (H-YLLRKMIEIEKQEKEKQQAANNRLLLDTI-NH2; N-terminus assumed)
Kd [1]: 0.995 ± 0.337 µM | Kd [2]: 0.428 ± 0.119 µM | high-affinity binding to mCRFR2β ([2]; N-terminal truncation by one amino acid and Glu^12 to tyrosine): completely abolished | Selectivity ([2]; Table 3): 1.63 | HEK-rCRFR1 cells rel. pot. (relative potency) [3, 12]: 0.90 ± 0.02 | Emax [3]: 6 ± 3% | HEK-mCRFR2β cells rel. pot. (relative potency) ([4]; Table 4, 10 nM antagonist, cAMP production stimulated by 1 nM Svg, Svg alone = 1.00): 0.80 ± 0.04 | Emax ([4]; read-out: HEK-mCRFR2β cells rel. IA (relative intrinsic activity)): 0.6 ± 0.2%

% IA (intrinsic activity), cAMP production, HEK-rCRFR1 cells [6]: 0.07 relative, oCRF = 1.00 | relative in vitro potency, inhibition of oCRF-stimulated cAMP production, HEK-rCRFR1 cells [6]: 0.75 relative, oCRF = 1.00 | rel. IA (relative intrinsic activity), cAMP production, HEK-rCRFR1 cells [7]: 0.07 relative, oCRF = 1.00 | rel. pot. (relative potency), inhibition of oCRF-stimulated cAMP production, HEK-rCRFR1 cells [7]: 0.75 relative, oCRF = 1.00 | Kd [8]: 0.0035 µM | Kd [9]: 0.237 µM | Kd [10]: 0.237 µM | Selectivity [11]: 47.6
Molecule: [dF]ELLRKMIEIEKQEKEKQQAANNRLLLDTI (not fully specified (C-terminus), also called compound 12) [[DPhe^11]Svg(11-40)]

From patent US6846803B1, “Antagonists specific for the corticotropin-releasing factor receptor type 2 (CRFR2)” (priority 1998, dated 2005)
